Laboratory results reported in US7968556B2, “Heteroaryl compounds, compositions thereof, and methods of treatment therewith” (Signal Pharmaceuticals, LLC, priority 2006, dated 2011).

| SMILES | melting point |
| --- | --- |
| COc1ccccc1-n1c(=O)[nH]c2c(C(N)=O)nc(-n3cnc4ccccc43)nc21 [Compound 134, 2-(1H-Benzo[d]imidazol-1-yl)-9-(2-methoxyphenyl)-8-oxo-8,9-dihydro-7H-purine-6-carboxamide] | 318 to 319 °C |
| COc1ccccc1-n1c(=O)[nH]c2c(C(N)=O)nc(N[C@H]3CCNC3)nc21 [Compound 106, (S)-9-(2-Methoxyphenyl)-8-oxo-2-(pyrrolidin-3-ylamino)-8,9-dihydro-7H-purine-6-carboxamide] | > 400 °C |
| COc1ccccc1-n1c(=O)[nH]c2c(C(N)=O)nc(N[C@H]3CC[C@H](O)CC3)nc21 [Compound 108, 2-(trans-4-Hydroxycyclohexylamino)-9-(2-methoxyphenyl)-8-oxo-8,9-dihydro-7H-purine-6-carboxamide] | 165 to 167 °C |
| COc1ccccc1-n1cnc2c(C(N)=O)nc(Nc3cccc(O)c3)nc21 [Compound 51, 2-(3-Hydroxyphenylamino)-9-(2-methoxyphenyl)-9H-purine-6-carboxamide] | 155 to 157 °C |
| COc1ccc(-n2c(=O)[nH]c3c(C(N)=O)nc(-c4cccc(O)c4)nc32)c(F)c1 [Compound 155, 9-(2-Fluoro-4-methoxyphenyl)-2-(3-hydroxyphenyl)-8-oxo-8,9-dihydro-7H-purine-6-carboxamide] | > 260 °C |
| COC[C@H]1CC[C@@H](n2c(=O)[nH]c3c(C(N)=O)nc(-c4cccc(O)c4)nc32)CC1 [Compound 159, 2-(3-Hydroxyphenyl)-9-(cis-4-(methoxymethyl)cyclohexyl)-8-oxo-8,9-dihydro-7H-purine-6-carboxamide] | 324 to 326 °C |
| NC(=O)c1nc(-c2cnc3nc[nH]c3c2)nc2c1[nH]c(=O)n2-c1ccccc1C(F)(F)F [Compound 137, 2-(1H-Imidazo[4,5-b]pyridin-6-yl)-8-oxo-9-(2-(trifluoromethyl)phenyl)-8,9-dihydro-7H-purine-6-carboxamide] | 320 °C |
| COc1ccccc1-n1c(=O)[nH]c2c(C(N)=O)nc(-c3ccncc3)nc21 [Compound 75, 9-(2-Methoxyphenyl)-8-oxo-2-(pyridin-4-yl)-8,9-dihydro-7H-purine-6-carboxamide] | 318 to 320 °C |
| CC(C)c1ccccc1-n1c(=O)[nH]c2c(C(N)=O)nc(-c3cnc4nc[nH]c4c3)nc21 [Compound 135, 2-(1H-Imidazo[4,5-b]pyridin-6-yl)-9-(2-isopropylphenyl)-8-oxo-8,9-dihydro-7H-purine-6-carboxamide] | 320 °C (dec.) |
| NC(=O)c1nc(-c2cccnc2)nc2c1[nH]c(=O)n2[C@H]1CC[C@H](O)CC1 [Compound 48, 9-(trans-4-Hydroxycyclohexyl)-8-oxo-2-(pyridin-3-yl)-8,9-dihydro-7H-purine-6-carboxamide] | 331 to 333 °C |
| NC(=O)c1nc(-c2cccc(O)c2)nc2c1[nH]c(=O)n2-c1ccccc1C1CCCC1 [Compound 153, 9-(2-Cyclopentylphenyl)-2-(3-hydroxyphenyl)-8-oxo-8,9-dihydro-7H-purine-6-carboxamide] | > 260 °C |
| COc1ccccc1-n1c(=O)[nH]c2c(C(N)=O)nc(Nc3cccc(CO)c3)nc21 [Compound 123, 2-(3-(Hydroxymethyl)phenylamino)-9-(2-methoxyphenyl)-8-oxo-8,9-dihydro-7H-purine-6-carboxamide] | 237 to 239 °C |
| COc1ccccc1-n1c(=O)[nH]c2c(C(N)=O)nc(Nc3ccc(Cn4ccnc4)cc3)nc21 [Compound 111, 2-(4-((1H-Imidazol-1-yl)methyl)phenylamino)-9-(2-methoxyphenyl)-8-oxo-8,9-dihydro-7H-purine-6-carboxamide] | 165 to 170 °C |
| COc1ccccc1-n1c(=O)[nH]c2c(C(N)=O)nc(NC[C@H]3CCCN3)nc21 [Compound 113, (R)-9-(2-Methoxyphenyl)-8-oxo-2-(pyrrolidin-2-ylmethylamino)-8,9-dihydro-7H-purine-6-carboxamide] | 155 to 157 °C |
